Measurements from patent publication US20260184710A1, “CASITAS B-LINEAGE LYMPHOMA PROTOONCOGENE B (CBL-B) DEGRADING COMPOUNDS AND ASSOCIATED METHODS OF USE” (Arvinas Operations, Inc., priority 2022, published 2026).

Key:
Cbl-b [1] = target: T1, Cbl-b (Homo sapiens, UniProt Q13191); experiment: Cbl-b Degradation Method B (Nano-Glo HiBiT lytic detection); assay type: cell-based; conditions: Cbl-b-HiBit KI Jurkat Cells, incubated at least 6-24 hours; for DC50: half maximal degradation, read-out: Cbl-b Degredation Method B IC50; for Cbl-b Degredation Method B Dmax (%) / Dmax: maximum degradation observed; for Dmax: read-out: Cbl-b Degredation Method B Dmax (%)
T1 construct: Cbl-b-HiBit KI Jurkat Cells were purchased from Promega; host or cells: Cbl-b-HiBiT knock-in Jurkat cells
Method in brief: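 Cbl-b-HiBiT knock-in Jurkat cells (20,000/well) were treated after ~24 h plating with an 11-point 1:3 series for 6-24 h at 37° C. Remaining Cbl-b measured by Nano-Glo HiBiT lytic luminescence. DC50 and Dmax expressed as % of control.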

Cbl-b [2] = target: T1, Cbl-b; experiment: Cbl-b Degradation Method A (FACS, anti-Cbl-b antibody staining); assay type: cell-based; conditions: Cbl-b-HiBit KI Jurkat Cells, incubated at least 20 hours; for DC50: half maximal degradation, read-out: Cbl-b Degredation Method A IC50; for Dmax: Jurkat, read-out: Cbl-b Degredation Method A Dmax (%)
Method in brief: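 Cbl-b-HiBit KI Jurkat cells treated with compound for at least 20 h at 37 °C, then fixed, permeabilized and stained with anti-Cbl-b antibody plus anti-rabbit AF488 secondary. Cbl-b levels read by FACS; DC50 and Dmax (percent of control) derived.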

T1 sequence (Q13191 whole entry): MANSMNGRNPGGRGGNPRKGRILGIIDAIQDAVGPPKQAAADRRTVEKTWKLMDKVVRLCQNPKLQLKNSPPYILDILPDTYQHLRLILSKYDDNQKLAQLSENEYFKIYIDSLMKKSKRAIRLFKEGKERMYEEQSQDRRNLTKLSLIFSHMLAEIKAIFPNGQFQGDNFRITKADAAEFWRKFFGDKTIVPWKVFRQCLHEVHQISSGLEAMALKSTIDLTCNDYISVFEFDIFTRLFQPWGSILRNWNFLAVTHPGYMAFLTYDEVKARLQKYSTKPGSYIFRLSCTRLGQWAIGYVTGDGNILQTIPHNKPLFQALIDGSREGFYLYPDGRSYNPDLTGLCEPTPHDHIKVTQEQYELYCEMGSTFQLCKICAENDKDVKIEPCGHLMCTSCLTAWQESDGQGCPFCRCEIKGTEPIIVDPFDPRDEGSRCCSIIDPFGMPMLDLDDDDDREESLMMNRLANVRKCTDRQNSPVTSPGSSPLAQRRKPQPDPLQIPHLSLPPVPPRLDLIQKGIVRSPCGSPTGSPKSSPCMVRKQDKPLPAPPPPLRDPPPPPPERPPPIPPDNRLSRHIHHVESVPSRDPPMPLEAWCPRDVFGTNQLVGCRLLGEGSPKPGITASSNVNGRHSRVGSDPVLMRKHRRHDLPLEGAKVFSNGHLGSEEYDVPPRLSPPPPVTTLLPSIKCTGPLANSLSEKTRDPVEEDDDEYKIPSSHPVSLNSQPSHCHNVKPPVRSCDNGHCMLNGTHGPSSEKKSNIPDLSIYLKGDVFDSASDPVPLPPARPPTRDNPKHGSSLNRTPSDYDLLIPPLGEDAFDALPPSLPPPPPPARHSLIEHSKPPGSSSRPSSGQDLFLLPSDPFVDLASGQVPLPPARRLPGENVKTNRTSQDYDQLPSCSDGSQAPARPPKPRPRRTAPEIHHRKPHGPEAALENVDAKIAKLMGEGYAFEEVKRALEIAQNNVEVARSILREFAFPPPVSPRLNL

SMILES | DC50 (Cbl-b [1]) | Cbl-b Degredation Method B Dmax (%) (Cbl-b [1]) | DC50 (Cbl-b [2]) | Dmax (Cbl-b [2]; maximum degradation observed) | Dmax (Cbl-b [1]) | Cbl-b Degredation Method A Dmax (%) (Cbl-b [2]; maximum degradation observed)
CC(C)n1c(=O)n(C2CCC(=O)NC2=O)c2cccc(N3CCC(CN4CCC5(CC4)CN(c4cc6c(c(C(F)(F)F)c4)CN(c4cccc([C@]7(Cc8nncn8C)C[C@@H](C#N)C7)c4)C6=O)C5)CC3)c21 (stereo partly shown) [Example 284, (1r,3r)-3-(3-{6-[7-({1-[1-(2,6-dioxopiperidin-3-yl)-2-oxo-3-(propan-2-yl)-2,3-dihydro-1H-1,3-benzodiazol-4-yl]piperidin-4-yl}methyl)-2,7-diazaspiro[3.5]nonan-2-yl]-1-oxo-4-(trifluoromethyl)-2,3-dihydro-1H-isoindol-2-yl}phenyl)-3-[(4-methyl-4H-1,2,4-triazol-3-yl)methyl]cyclobutane-1-carbonitrile] | < 5 nM | C (C ≤ 35) | 50 to 500 nM | 35 to 70% |  | 
Cc1cc(N2CCC(O[C@H]3CC[C@H](CN4CCN(Cc5cc6c(c(C(F)(F)F)c5)CN(c5cccc([C@]7(Cc8nncn8C)C[C@H](C#N)C7)c5)C6=O)[C@@H](C)C4)CC3)CC2)c(F)c2c1C(=O)N(C1CCC(=O)NC1=O)C2 (stereo partly drawn) [Example 220, (1r,3r)-3-[3-(6-{[(2S)-2-methyl-4-{[(1r,4r)-4-({1-[2-(2,6-dioxopiperidin-3-yl)-4-fluoro-7-methyl-1-oxo-2,3-dihydro-1H-isoindol-5-yl]piperidin-4-yl}oxy)cyclohexyl]methyl}piperazin-1-yl]methyl}-1-oxo-4-(trifluoromethyl)-2,3-dihydro-1H-isoindol-2-yl)phenyl]-3-[(4-methyl-4H-1,2,4-triazol-3-yl)methyl]cyclobutane-1-carbonitrile] | < 5 nM |  | 5 to 50 nM | > 70% | > 70% | 
Cn1cnnc1CC1(c2cccc(N3Cc4c(cc(CN5CCC(COCCOCCOc6cccc7c6C(=O)N(C6CCC(=O)NC6=O)C7=O)CC5)cc4C(F)(F)F)C3=O)c2)COC1 (stereo not shown) [Example 91, 2-(2,6-dioxopiperidin-3-yl)-4-(2-{2-[(1-{[2-(3-{3-[(4-methyl-4H-1,2,4-triazol-3-yl)methyl]oxetan-3-yl}phenyl)-3-oxo-7-(trifluoromethyl)-2,3-dihydro-1H-isoindol-5-yl]methyl}piperidin-4-yl)methoxy]ethoxy}ethoxy)-2,3-dihydro-1H-isoindole-1,3-dione] | > 500 nM |  | > 500 nM |  |  | 
Cn1cnnc1CC1(c2cccc(N3Cc4c(cc(CN5CCC[C@H](CN6CCN(C[C@H]7CC[C@@H](OC8CCN(c9ccc%10c(c9F)CN(C9CCC(=O)NC9=O)C%10=O)CC8)CC7)CC6)C5)cc4C(F)(F)F)C3=O)c2)CC1 (stereo partly drawn) [Example 162, 3-[4-fluoro-1-oxo-5-(4-{[(1r,4r)-4-[(4-{[(3S)-1-{[2-(3-{1-[(4-methyl-4H-1,2,4-triazol-3-yl)methyl]cyclopropyl}phenyl)-3-oxo-7-(trifluoromethyl)-2,3-dihydro-1H-isoindol-5-yl]methyl}piperidin-3-yl]methyl}piperazin-1-yl)methyl]cyclohexyl]oxy}piperidin-1-yl)-2,3-dihydro-1H-isoindol-2-yl]piperidine-2,6-dione] | < 5 nM |  | < 5 nM | > 70% | > 70% | 
Cn1cnnc1CC1(c2cccc(-n3cc4c(C(F)(F)F)cc(CN5CCC[C@H](CN6CCN(C[C@H]7CC[C@@H](OC8CCN(c9ccc%10c(c9F)CN(C9CCC(=O)NC9=O)C%10=O)CC8)CC7)CC6)C5)cc4n3)c2)COC1 (stereo partly drawn) [Example 221, 3-[4-fluoro-1-oxo-5-(4-{[(1r,4r)-4-[(4-{[(3S)-1-{[2-(3-{3-[(4-methyl-4H-1,2,4-triazol-3-yl)methyl]oxetan-3-yl}phenyl)-4-(trifluoromethyl)-2H-indazol-6-yl]methyl}piperidin-3-yl]methyl}piperazin-1-yl)methyl]cyclohexyl]oxy}piperidin-1-yl)-2,3-dihydro-1H-isoindol-2-yl]piperidine-2,6-dione] | < 5 nM |  | < 5 nM | > 70% | > 70% | 
CC1CN(Cc2cc3c(c(C(F)(F)F)c2)CN(c2cccc(C4(Cc5nncn5C)COC4)c2)C3=O)CCN1C[C@H]1CC[C@H](OC2CCN(c3ccc4c(c3F)CN(C3CCC(=O)NC3=O)C4=O)CC2)CC1 (stereo partly shown) [Example 196, 3-[4-fluoro-1-oxo-5-(4-{[(1r,4r)-4-[(2-methyl-4-{[2-(3-{3-[(4-methyl-4H-1,2,4-triazol-3-yl)methyl]oxetan-3-yl}phenyl)-3-oxo-7-(trifluoromethyl)-2,3-dihydro-1H-isoindol-5-yl]methyl}piperazin-1-yl)methyl]cyclohexyl]oxy}piperidin-1-yl)-2,3-dihydro-1H-isoindol-2-yl]piperidine-2,6-dione] | < 5 nM |  | < 5 nM | > 70% | 35 to 70% | 
CC(c1cc2c(c(C(F)(F)F)c1)CN(c1cccc(C3(Cc4nncn4C)COC3)c1)C2=O)N1CCN(C[C@H]2CC[C@H](OC3CCN(c4ccc5c(c4F)CN(C4CCC(=O)NC4=O)C5=O)CC3)CC2)CC1 (single isomer, unassigned) [Example 9, 3-[4-fluoro-1-oxo-5-(4-{[(1r, 4r)-4-[(4-{1-[2-(3-{3-[(4-methyl-4H-1,2,4-triazol-3-yl)methyl]oxetan-3-yl}phenyl)-3-oxo-7-(trifluoromethyl)-2,3-dihydro-1H-isoindol-5-yl]ethyl}piperazin-1-yl)methyl]cyclohexyl]oxy}piperidin-1-yl)-2,3-dihydro-1H-isoindol-2-yl]piperidine-2,6-dione] | < 5 nM | B (35 < B < 70) | < 5 nM |  |  | B (35 < B < 70)
Cn1cnnc1CC1(c2cccc(N3Cc4c(cc(N5CC6(CCN(CC7CCN(c8cccc9c8CN(C8CCC(=O)NC8=O)C9=O)CC7)CC6)C5)cc4C(F)(F)F)C3=O)c2)COC1 (stereo not shown) [Example 119, 3-{4-[4-({2-[2-(3-{3-[(4-methyl-4H-1,2,4-triazol-3-yl)methyl]oxetan-3-yl}phenyl)-3-oxo-7-(trifluoromethyl)-2,3-dihydro-1H-isoindol-5-yl]-2,7-diazaspiro[3.5]nonan-7-yl}methyl)piperidin-1-yl]-1-oxo-2,3-dihydro-1H-isoindol-2-yl}piperidine-2,6-dione] | < 5 nM |  | 5 to 50 nM | < 35% | < 35% | 
CC(C)n1c(=O)n(C2CCC(=O)NC2=O)c2cccc(N3CCC(O[C@H]4CC[C@H](CN5CCC6(CCN(Cc7cc8c(c(C(F)(F)F)c7)CN(c7cccc([C@]9(Cc%10nncn%10C)C[C@@H](C#N)C9)c7)C8=O)CC6)CC5)CC4)CC3)c21 (stereo partly shown) [Example 317, (1r,3r)-3-[(4-methyl-4H-1,2,4-triazol-3-yl)methyl]-3-(3-{1-oxo-6-[(9-{[(1r,4r)-4-({1-[1-(2,6-dioxopiperidin-3-yl)-2-oxo-3-(propan-2-yl)-2,3-dihydro-1H-1,3-benzodiazol-4-yl]piperidin-4-yl}oxy)cyclohexyl]methyl}-3,9-diazaspiro[5.5]undecan-3-yl)methyl]-4-(trifluoromethyl)-2,3-dihydro-1H-isoindol-2-yl}phenyl)cyclobutane-1-carbonitrile] | < 5 nM | C (C ≤ 35) | 50 to 500 nM | 35 to 70% |  | 
